In PubChem BioAssay (NCI):
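Dose response: 5 concentrations. Exposure: 48 h. Format: 96-well plates. Endpoint: linear interpolation; highest concentration if not reached. TGI: concentration producing complete growth inhibition.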

Key:
Experiment in all cases: NCI-60 cell line screen, 48 h
PC-3 prostate = tested on: PC-3 prostate
SF-539 CNS = tested on: SF-539 CNS
MDA-N = tested on: MDA-N
T-47D breast = tested on: T-47D breast
NCI-H23 lung = tested on: NCI-H23 lung
COLO 205 colon = tested on: COLO 205 colon
OVCAR-8 ovarian = tested on: OVCAR-8 ovarian
OVCAR-3 ovarian = tested on: OVCAR-3 ovarian
SW-620 colon = tested on: SW-620 colon
LOX IMVI melanoma = tested on: LOX IMVI melanoma
SK-MEL-5 melanoma = tested on: SK-MEL-5 melanoma
SF-268 CNS = tested on: SF-268 CNS
KM12 colon = tested on: KM12 colon
HCT-116 colon = tested on: HCT-116 colon
HL-60(TB) leukemia = tested on: HL-60(TB) leukemia
CCRF-CEM leukemia = tested on: CCRF-CEM leukemia
NCI/ADR-RES ovarian = tested on: NCI/ADR-RES ovarian
SF-295 CNS = tested on: SF-295 CNS
MCF7 breast = tested on: MCF7 breast
MDA-MB-231 breast = tested on: MDA-MB-231 breast
NCI-H460 lung = tested on: NCI-H460 lung
IGROV1 ovarian = tested on: IGROV1 ovarian
RXF 393 renal = tested on: RXF 393 renal
HCT-15 colon = tested on: HCT-15 colon
M14 melanoma = tested on: M14 melanoma
SN12C renal = tested on: SN12C renal
MOLT-4 leukemia = tested on: MOLT-4 leukemia
BT-549 breast = tested on: BT-549 breast
HOP-62 NSCLC = tested on: HOP-62 NSCLC
EKVX NSCLC = tested on: EKVX NSCLC
K-562 leukemia = tested on: K-562 leukemia
HT29 colon = tested on: HT29 colon
HCC-2998 colon = tested on: HCC-2998 colon
OVCAR-5 ovarian = tested on: OVCAR-5 ovarian
UO-31 renal = tested on: UO-31 renal
SNB-19 CNS = tested on: SNB-19 CNS
U251 CNS = tested on: U251 CNS
SK-OV-3 ovarian = tested on: SK-OV-3 ovarian
SNB-75 CNS = tested on: SNB-75 CNS
UACC-62 melanoma = tested on: UACC-62 melanoma
OVCAR-4 ovarian = tested on: OVCAR-4 ovarian
MDA-MB-435 = tested on: MDA-MB-435
786-0 renal = tested on: 786-0 renal
ACHN renal = tested on: ACHN renal
A498 renal = tested on: A498 renal
A549 NSCLC = tested on: A549 NSCLC
HS 578T breast = tested on: HS 578T breast
RPMI-8226 leukemia = tested on: RPMI-8226 leukemia
HOP-92 NSCLC = tested on: HOP-92 NSCLC
TK-10 renal = tested on: TK-10 renal
SR leukemia = tested on: SR leukemia
CAKI-1 renal = tested on: CAKI-1 renal
UACC-257 melanoma = tested on: UACC-257 melanoma
NCI-H522 lung = tested on: NCI-H522 lung
NCI-H226 lung = tested on: NCI-H226 lung
DU-145 prostate = tested on: DU-145 prostate
SK-MEL-2 melanoma = tested on: SK-MEL-2 melanoma

## CCCCOC(=O)NC(c1ccccc1)C(O)C(=O)OC1C[C@@]2(O)C(OC(=O)c3ccccc3)C3[C@](C)(C(=O)[C@H](OC(C)=O)C(=C1C)C2(C)C)[C@@H](O)C[C@H]1OC[C@@]31OC(C)=O (stereo partly drawn)
PC-3 prostate
  TGI: > 10 µM
SF-539 CNS
  TGI: 0.0175 µM
MDA-N
  TGI: 0.0113 µM
T-47D breast
  TGI: > 10 µM
NCI-H23 lung
  TGI: > 10 µM
COLO 205 colon
  TGI: > 10 µM
OVCAR-8 ovarian
  TGI: > 10 µM
OVCAR-3 ovarian
  TGI: > 6.88 µM
SW-620 colon
  TGI: > 10 µM
LOX IMVI melanoma
  TGI: > 10 µM
SK-MEL-5 melanoma
  TGI: > 10 µM
SF-268 CNS
  TGI: > 10 µM
KM12 colon
  TGI: > 10 µM
HCT-116 colon
  TGI: > 10 µM
HL-60(TB) leukemia
  TGI: 0.00741 µM
CCRF-CEM leukemia
  TGI: > 10 µM
NCI/ADR-RES ovarian
  TGI: > 6.5 µM
SF-295 CNS
  TGI: > 10 µM
MCF7 breast
  TGI: > 10 µM
MDA-MB-231 breast
  TGI: > 10 µM
NCI-H460 lung
  TGI: > 10 µM
IGROV1 ovarian
  TGI: > 10 µM
RXF 393 renal
  TGI: 0.0755 µM
HCT-15 colon
  TGI: > 10 µM
M14 melanoma
  TGI: > 10 µM
SN12C renal
  TGI: > 10 µM
MOLT-4 leukemia
  TGI: > 9.14 µM
BT-549 breast
  TGI: > 10 µM
HOP-62 NSCLC
  TGI: > 10 µM
EKVX NSCLC
  TGI: > 10 µM
K-562 leukemia
  TGI: > 10 µM
HT29 colon
  TGI: 6.81 µM
HCC-2998 colon
  TGI: 0.595 µM
OVCAR-5 ovarian
  TGI: > 10 µM
UO-31 renal
  TGI: > 10 µM
SNB-19 CNS
  TGI: > 10 µM
U251 CNS
  TGI: > 10 µM
SK-OV-3 ovarian
  TGI: > 10 µM
SNB-75 CNS
  TGI: > 10 µM
UACC-62 melanoma
  TGI: > 10 µM
OVCAR-4 ovarian
  TGI: > 10 µM
MDA-MB-435
  TGI: 0.0241 µM
786-0 renal
  TGI: > 10 µM
ACHN renal
  TGI: > 10 µM
A498 renal
  TGI: 0.0663 µM
A549 NSCLC
  TGI: > 10 µM
HS 578T breast
  TGI: 0.0469 µM
RPMI-8226 leukemia
  TGI: > 7.96 µM
HOP-92 NSCLC
  TGI: > 10 µM
TK-10 renal
  TGI: > 10 µM
SR leukemia
  TGI: > 10 µM

## COc1cc2c(c(OC)c1OC)-c1ccc(SC)c(=O)cc1[C@@H](OC(=O)c1ccncc1)CC2
PC-3 prostate
  TGI: > 100 µM
SF-539 CNS
  TGI: < 0.01 µM
MDA-N
  TGI: > 100 µM
CAKI-1 renal
  TGI: 23.2 µM
T-47D breast
  TGI: > 100 µM
NCI-H23 lung
  TGI: > 100 µM
COLO 205 colon
  TGI: > 100 µM
OVCAR-8 ovarian
  TGI: > 100 µM
OVCAR-3 ovarian
  TGI: 21.9 µM
SW-620 colon
  TGI: > 100 µM
LOX IMVI melanoma
  TGI: > 35.7 µM
SK-MEL-5 melanoma
  TGI: 15.4 µM
SF-268 CNS
  TGI: 49.3 µM
HCT-116 colon
  TGI: > 35 µM
HL-60(TB) leukemia
  TGI: > 100 µM
CCRF-CEM leukemia
  TGI: 46.8 µM
NCI/ADR-RES ovarian
  TGI: < 0.01 µM
SF-295 CNS
  TGI: < 0.01 µM
MCF7 breast
  TGI: > 100 µM
MDA-MB-231 breast
  TGI: > 100 µM
NCI-H460 lung
  TGI: 11.2 µM
IGROV1 ovarian
  TGI: > 46.8 µM
UACC-257 melanoma
  TGI: 24 µM
RXF 393 renal
  TGI: > 82.9 µM
M14 melanoma
  TGI: 56.7 µM
MOLT-4 leukemia
  TGI: > 100 µM
NCI-H522 lung
  TGI: 39.5 µM
BT-549 breast
  TGI: 22.8 µM
HOP-62 NSCLC
  TGI: > 100 µM
NCI-H226 lung
  TGI: < 0.01 µM
EKVX NSCLC
  TGI: > 100 µM
K-562 leukemia
  TGI: > 100 µM
HT29 colon
  TGI: < 0.01 µM
HCC-2998 colon
  TGI: 11.6 µM
OVCAR-5 ovarian
  TGI: > 100 µM
UO-31 renal
  TGI: 52.6 µM
SNB-19 CNS
  TGI: > 100 µM
U251 CNS
  TGI: > 100 µM
SK-OV-3 ovarian
  TGI: 43.7 µM
SNB-75 CNS
  TGI: > 100 µM
DU-145 prostate
  TGI: > 62.7 µM
UACC-62 melanoma
  TGI: > 32.1 µM
SK-MEL-2 melanoma
  TGI: > 100 µM
OVCAR-4 ovarian
  TGI: > 100 µM
786-0 renal
  TGI: > 40.3 µM
ACHN renal
  TGI: 31.2 µM
A498 renal
  TGI: 21.4 µM
A549 NSCLC
  TGI: > 100 µM
HS 578T breast
  TGI: > 56.5 µM
HOP-92 NSCLC
  TGI: > 100 µM
TK-10 renal
  TGI: 55.3 µM
SR leukemia
  TGI: > 39.1 µM
